Molecules are shown by their SMILES. Calls of active or inactive are those of the source.

A word on the IC50: it is the concentration at which inhibition is half-maximal. As a reminder, the EC50 is the concentration giving half of the maximal effect. By AC50 is commonly meant the concentration at which the activity in the assay is half-maximal.

Test [1] addresses T1, Beta-lactamase (Pseudomonas aeruginosa, UniProt Q79MP6). The test is described as follows: IMP-1 metallo-beta-lactamase inhibitors, dose response, selectivity assay for VIM-2 inhibitor project, biochemical, epi-absorbance (AID 1920).
For test [2], the target named is T2, Beta Lactamase (Pseudomonas aeruginosa, UniProt Q932Y6). The test is described as follows: VIM-2 metallo-beta-lactamase inhibitor potency, dose response, biochemical, epi-absorbance readout, selective inhibitors (AID 1919).
T2 sequence (Q932Y6 whole entry): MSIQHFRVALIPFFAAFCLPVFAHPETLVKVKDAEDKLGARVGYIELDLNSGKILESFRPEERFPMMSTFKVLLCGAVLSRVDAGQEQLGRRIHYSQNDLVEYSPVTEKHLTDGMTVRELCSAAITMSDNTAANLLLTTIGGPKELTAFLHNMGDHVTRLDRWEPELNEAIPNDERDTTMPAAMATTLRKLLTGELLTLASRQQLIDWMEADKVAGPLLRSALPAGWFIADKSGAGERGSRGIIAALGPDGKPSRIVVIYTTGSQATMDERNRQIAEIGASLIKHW
The target in test [3] is Beta-lactamase (Salmonella choleraesuis (strain SC-B67), UniProt Q5J463). The test is described as follows: Epi-absorbance-based counterscreen for selective VIM-2 inhibitors: dose response biochemical high throughput screening assay to identify inhibitors of TEM-1 serine-beta-lactamase. A general note: Counterscreens check selectivity or assay interference.
Chain of Beta-lactamase (Salmonella choleraesuis (strain SC-B67), UniProt Q5J463) (Q5J463 whole entry): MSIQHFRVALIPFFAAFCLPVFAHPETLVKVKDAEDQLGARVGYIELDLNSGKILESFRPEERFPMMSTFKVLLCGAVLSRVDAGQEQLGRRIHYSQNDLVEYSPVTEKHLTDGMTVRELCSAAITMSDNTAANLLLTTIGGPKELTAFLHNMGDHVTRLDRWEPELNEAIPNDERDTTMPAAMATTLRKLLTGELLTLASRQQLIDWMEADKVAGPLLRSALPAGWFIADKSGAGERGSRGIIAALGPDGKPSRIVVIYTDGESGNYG
For test [4], the target named is T1, Beta-lactamase. The test is described as follows: […] counterscreen for selective VIM-2 inhibitors: dose response biochemical high throughput screening assay to identify inhibitors of IMP-1 metallo-beta-lactamase.
The target in test [5] is T2, Beta Lactamase. The test is described as follows: VIM-2 inhibitor FRET-based artefact check, dose response, artefact control for selective VIM-2 inhibitor project, biochemical, FRET readout, CCF2 substrate (AID 1926).
The target of the next test is Galanin receptor type 3 (Homo sapiens, UniProt O60755). The test is described as follows: Fluorescence-based cell-based primary high throughput dose response assay to identify antagonists of the Galanin Receptor 3 (GalR3). Type of test: functional.
Chain of Galanin receptor type 3 (O60755 whole entry): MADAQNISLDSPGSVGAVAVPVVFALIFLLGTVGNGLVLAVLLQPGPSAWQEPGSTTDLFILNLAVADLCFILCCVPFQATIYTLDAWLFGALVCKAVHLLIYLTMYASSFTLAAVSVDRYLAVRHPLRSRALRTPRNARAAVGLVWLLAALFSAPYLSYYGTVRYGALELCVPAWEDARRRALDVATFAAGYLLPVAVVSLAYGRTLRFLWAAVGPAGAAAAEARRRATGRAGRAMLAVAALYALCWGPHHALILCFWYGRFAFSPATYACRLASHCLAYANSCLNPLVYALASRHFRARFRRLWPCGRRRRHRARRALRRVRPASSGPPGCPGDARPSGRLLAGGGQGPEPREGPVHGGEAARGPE
A further test in a line: cells. The conditions noted are these: HEK-CNG. The class given is functional, cell-based.
The target of test [6] is T3, COUP transcription factor 2 (Homo sapiens, UniProt P24468).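 Also: HEK293 cells transiently cotransfected with COUP-TFII expression vector and reporter; luciferase reporter luminescence driven by COUP-TFII from the pX2-168 reporter plasmid.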
T3 sequence (P24468 whole entry): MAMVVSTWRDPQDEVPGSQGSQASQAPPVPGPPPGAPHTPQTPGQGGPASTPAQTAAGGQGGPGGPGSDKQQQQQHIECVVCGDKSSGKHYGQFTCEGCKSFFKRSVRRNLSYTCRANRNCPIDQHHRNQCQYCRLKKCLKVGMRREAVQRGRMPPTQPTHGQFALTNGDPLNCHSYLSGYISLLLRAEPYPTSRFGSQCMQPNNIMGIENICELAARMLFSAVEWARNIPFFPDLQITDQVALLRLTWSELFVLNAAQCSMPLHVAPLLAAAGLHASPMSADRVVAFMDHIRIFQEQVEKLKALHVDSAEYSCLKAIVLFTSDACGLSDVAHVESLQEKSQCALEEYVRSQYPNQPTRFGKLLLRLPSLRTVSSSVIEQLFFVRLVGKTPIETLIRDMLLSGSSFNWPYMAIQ
The test is described as follows: Luminescence-based cell-based high throughput dose response assay to identify inhibitors of COUP-TFII (NR2F2). The class given is functional.

The target in test [7] is Histone-lysine N-methyltransferase NSD2 (Homo sapiens, UniProt O96028). Type of test: biochemical.
Chain of Histone-lysine N-methyltransferase NSD2 (O96028 whole entry): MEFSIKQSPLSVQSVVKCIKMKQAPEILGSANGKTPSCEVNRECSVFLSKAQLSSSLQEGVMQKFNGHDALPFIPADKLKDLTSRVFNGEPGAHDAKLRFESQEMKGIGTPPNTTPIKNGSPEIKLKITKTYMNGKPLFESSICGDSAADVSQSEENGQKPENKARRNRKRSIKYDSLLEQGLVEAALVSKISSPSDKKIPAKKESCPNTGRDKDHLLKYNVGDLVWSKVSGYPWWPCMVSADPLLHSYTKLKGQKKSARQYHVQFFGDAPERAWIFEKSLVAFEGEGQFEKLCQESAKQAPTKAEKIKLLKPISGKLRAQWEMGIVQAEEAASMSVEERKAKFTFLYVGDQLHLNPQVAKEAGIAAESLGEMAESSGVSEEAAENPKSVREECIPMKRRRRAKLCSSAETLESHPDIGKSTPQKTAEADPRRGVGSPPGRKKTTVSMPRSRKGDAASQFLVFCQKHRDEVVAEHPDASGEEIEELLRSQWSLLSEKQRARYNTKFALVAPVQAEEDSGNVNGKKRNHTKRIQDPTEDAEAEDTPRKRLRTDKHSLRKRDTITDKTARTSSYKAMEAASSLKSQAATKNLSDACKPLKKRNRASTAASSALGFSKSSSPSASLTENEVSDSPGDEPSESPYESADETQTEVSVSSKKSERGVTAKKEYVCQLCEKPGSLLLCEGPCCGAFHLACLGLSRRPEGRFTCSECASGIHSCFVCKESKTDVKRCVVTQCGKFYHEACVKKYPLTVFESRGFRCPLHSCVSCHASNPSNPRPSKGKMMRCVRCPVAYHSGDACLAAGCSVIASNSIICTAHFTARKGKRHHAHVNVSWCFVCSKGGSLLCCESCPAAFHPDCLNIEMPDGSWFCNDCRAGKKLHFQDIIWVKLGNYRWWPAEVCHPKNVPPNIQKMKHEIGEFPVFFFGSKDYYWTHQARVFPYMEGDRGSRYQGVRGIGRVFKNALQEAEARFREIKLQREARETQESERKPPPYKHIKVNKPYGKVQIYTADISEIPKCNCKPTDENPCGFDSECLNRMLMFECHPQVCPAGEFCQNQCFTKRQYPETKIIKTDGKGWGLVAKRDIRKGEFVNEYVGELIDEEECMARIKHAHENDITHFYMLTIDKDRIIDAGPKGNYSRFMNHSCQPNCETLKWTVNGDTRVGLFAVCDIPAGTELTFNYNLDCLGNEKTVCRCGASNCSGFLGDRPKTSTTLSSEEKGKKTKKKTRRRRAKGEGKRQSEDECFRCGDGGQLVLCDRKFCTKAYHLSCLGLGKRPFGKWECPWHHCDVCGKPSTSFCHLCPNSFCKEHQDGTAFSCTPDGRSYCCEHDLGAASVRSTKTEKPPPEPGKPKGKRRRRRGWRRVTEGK
Test [8] is described as follows: T. cruzi intracellular amastigote growth inhibition, dose response, imaging, CA-I/72 strain, bovine embryo skeletal muscle, dry powder (AID 651885). The class given is functional, cell-based.
For another test, the target named is Protein S100-A4 (Homo sapiens, UniProt P26447). The test is described as follows: S100A4-myosin IIA binding inhibitor potency, dose response, biochemical, fluorescence polarization, cherry-picked hits (AID 687001). The class given is functional. (In general: In fluorescence polarisation assays a small probe gives low polarisation when free and higher when bound to something large.)
Chain of Protein S100-A4 (P26447 whole entry): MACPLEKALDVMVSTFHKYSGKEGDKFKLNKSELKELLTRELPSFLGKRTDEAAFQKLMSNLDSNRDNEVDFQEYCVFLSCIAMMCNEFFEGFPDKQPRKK
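For EC50 in this document: target is galanin receptor GalR3 read with a cAMP biosensor in HEK293 cells.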

T1 sequence (Q79MP6 whole entry): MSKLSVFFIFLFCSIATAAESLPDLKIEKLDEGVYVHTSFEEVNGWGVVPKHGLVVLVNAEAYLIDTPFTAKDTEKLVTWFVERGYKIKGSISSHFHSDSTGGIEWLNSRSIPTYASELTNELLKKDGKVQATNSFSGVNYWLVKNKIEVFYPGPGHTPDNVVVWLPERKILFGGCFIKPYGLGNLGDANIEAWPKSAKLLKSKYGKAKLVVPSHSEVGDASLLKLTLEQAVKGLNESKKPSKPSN

For the molecule `O=C(C1=C(O)C(=O)N(Cc2cccnc2)C1c1ccccn1)c1cccs1` (stereo unspecified), the IC50 is > 59.6 µM (inactive) on Beta-lactamase [1]; 13.2 µM (inactive) on Beta Lactamase [2]; > 59.6 µM (inactive) at Beta-lactamase [3]; > 59.6 µM (inactive) on Beta-lactamase [4]; 4.83 µM (active) on Beta Lactamase [5].

For `Cc1c(Cl)cccc1NC(=O)N1CCCN(c2nc(-c3ccccc3)ns2)CC1`, the IC50 at Galanin receptor type 3 is 1.53 µM (active); in [6] it was 13.4 µM (inactive). Moreover, the EC50 in “cells” was > 29.9 µM (inactive).

As for `COc1cc(/C=C2\C(=N)N3N=C(S(C)(=O)=O)SC3=NC2=O)ccc1OC(=O)c1cccs1`, in test [7], the AC50 is > 20 µM (inactive).

Regarding `CNC[C@H]1Oc2c(NC(=O)c3ccccc3)cccc2C(=O)N(C(C)C)C[C@@H]1C`, in test [8], the IC50 was > 20 µM (inactive).

Turning to `CN(C)c1ccc(C=Cc2nccc3ccccc23)cc1`, the concentration at half-maximal activity (AC50) at Protein S100-A4 was 774 nM (active).

These data come from ChEMBL document CHEMBL1201862, “PubChem BioAssay data set” (2004).
